Measurements reported in PubChem BioAssay (NCI).
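Results reflect a 48-hour exposure of cells in 96-well plates to compound at five concentrations. At the TGI there is no net growth.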 *1 amine or outer side, *2 acyl side, *3 side chain or, on linkers, in order; H or OH if unused. Where a SMILES comes first, the peptide text is derived from it. Bridges are numbered along the chain shown (N, C = ends). [ ]: non-standard residue; d: D form. The star is where a group is joined. ξ: configuration not given here. X34 = O=C(C(CCCCNO[*:3])N[*:1])[*:2]; Fmoc = O=C(OCC1c2ccccc2-c2ccccc21)*; ξW = NC(Cc1c[nH]c2ccccc12)C(=O)O; ξP = O=C(O)C1CCCN1

Legend:
Experiment in all cases: DTP human tumour cell line panel, 48 h
CCRF-CEM leukemia = system: CCRF-CEM leukemia
NCI-H460 lung = system: NCI-H460 lung
NCI-H522 lung = system: NCI-H522 lung
U251 CNS = system: U251 CNS
SN12C renal = system: SN12C renal
DLD-1 colon = system: DLD-1 colon
SR leukemia = system: SR leukemia
DU-145 prostate = system: DU-145 prostate
OVCAR-4 ovarian = system: OVCAR-4 ovarian
MDA-MB-231 breast = system: MDA-MB-231 breast

SMILES	TGI (CCRF-CEM leukemia) [µM]	TGI (NCI-H460 lung) [µM]	TGI (NCI-H522 lung) [µM]	TGI (U251 CNS) [µM]	TGI (SN12C renal) [µM]	TGI (DLD-1 colon) [µM]	TGI (SR leukemia) [µM]	TGI (DU-145 prostate) [µM]	TGI (OVCAR-4 ovarian) [µM]	TGI (MDA-MB-231 breast) [µM]
OCc1ccc2[n+](c1)CCC1c3ccccc3NC21 (stereo unspecified)	> 300	> 300	> 300	> 300	> 300	> 300	> 300	–	–	–
CCOc1cc(NC(C)=O)ccc1C(=O)NNC(=O)c1ccccc1OC(C)=O	> 100	32.9	> 100	> 100	> 91.4	–	> 34.7	> 67.7	> 52.4	> 100
O=C1/C(=C/c2ccccc2)N=C(c2ccccc2)N1n1c(-c2ccccc2)nc2ccccc2c1=O	> 100	> 100	> 100	> 100	> 100	–	> 100	> 100	> 100	> 100
O=C1CCC[C@@H]2NC[C@@H](c3ccc4c(c3)OCO4)[C@H]12	> 25	> 25	> 25	> 25	> 25	–	> 25	> 25	> 25	> 25
C=C1CC(COc2cc(=O)oc3ccccc23)(c2ccccc2)OC1=O (stereo unspecified)	2.26	23.7	3.88	25.3	6.92	–	> 28	5.74	4.64	11.9
C[N+]1=C2[B-](C(C)(C)C)=[N+](C(C)(C)C)[B-]2(C(C)(C)C)[N+](C)=C2[B-](C(C)(C)C)=[N+](C(C)(C)C)[B-]21C(C)(C)C (stereo unspecified)	> 100	> 100	> 100	> 100	> 100	–	> 100	> 100	> 100	> 100
O=c1nc(N2CCN(c3ccccc3)CC2)ccn1C1OC(CO)C(O)C1O (stereo unspecified)	> 100	> 100	> 100	> 100	> 100	–	> 100	> 100	> 100	> 100
OC1C2[C@@H](O)CCCN2C[C@@H](O)[C@H]1O (stereo partly specified)	> 100	> 100	> 100	> 100	> 100	–	> 100	> 100	> 100	> 100
NC(=O)CNC(=O)C1CCCN1C(=O)C1CCCCNOC(=O)CC[C@@H](NC(=O)OCC2c3ccccc3-c3ccccc32)C(=O)NC(Cc2c[nH]c3ccccc23)C(=O)N1 (stereo partly specified) (Fmoc-[dE][ξW][X34][ξP]G-NH2; ester 1-3)	> 100	> 100	> 100	> 100	> 100	–	> 100	> 100	> 100	> 100
CC(C)(N=NC(C)(C)C(=O)NCCO)C(=O)NCCO	> 100	> 100	> 100	> 100	> 100	–	> 100	> 100	> 100	> 100
O=C(O)CN(CCNC(=O)OCC1c2ccccc2-c2ccccc21)CCNC(=O)OCC1c2ccccc2-c2ccccc21	63	41.2	32.3	38.4	80.1	–	50.2	35.8	64.4	31.9
CC(=O)OCC(C)C1=C(O)C(=O)C2(C)C/C=C(/C)CC/C=C(\C)CCC(O)C(C)CCC12 (stereo unspecified)	70.9	32	32.6	30.8	34.1	–	34.9	31.7	37	30.4
CC(C)c1ccc2[nH]c(O)c(-c3[nH]c4ccccc4c3N=O)c2c1	12.9	15.2	14.6	19.9	16.8	–	7.32	20.8	17.6	29.8
CCOC(=O)C1Cc2[nH]c3ccccc3c2C(C)C1C (stereo unspecified)	57.4	33.2	26.6	35.1	32.8	34.5	41.2	–	30.9	–
CC(C)Sc1nc(C#N)cc2c1CCCC2	55.8	> 100	78.4	> 100	> 100	–	79.1	> 100	> 100	> 100
CCCCCCCCCCCCCCCCCCNc1ccn(C2OC(COP(=O)(O)OCC3OC(n4ccc(NC(=O)CCCCCCCCCCCCCCCCC)nc4=O)C(OC(C)=O)C3OC(C)=O)C(OC(C)=O)C2OC(C)=O)c(=O)n1 (stereo unspecified)	> 100	> 100	> 100	> 100	> 100	–	> 100	> 100	> 100	> 100
